Experiment: In vitro 5-FU release kinetics
Format: physicochemical
Settings: from hydrogel of 1 wt % PAMAM G5-(NH2)128 and PEG diacrylate575 (FIG. 9)
Procedure: In Vitro Drug Release Kinetics. Drug release was performed on 5-FU loaded into DH-G5-0.5% (5-FU/DH-G5-0.5%). Briefly, Free 5-FU (300 μg) in PBS or DH-G5-0.5% containing 300 μg of 5-FU was transferred to dialysis bags (MWCO=500-1000 Da) and suspended in 30 mL of PBS in 50-mL centrifuge tubes. The tubes were maintained at 37° C. At predetermined time intervals up to 24 h, 1 mL of medium outside the dialysis bag was withdrawn, and the amount of drug released into the medium was analyzed on HPLC against a standard curve of 5-FU. After each sampling, 1 mL of fresh PBS was added to maintain a constant volume and sink condition. All experiments were performed in triplicate.

drug released in the first 3 hours: about 70%
SMILES: O=c1[nH]cc(F)c(=O)[nH]1 [fluorouracil]

From patent US20170313828A1, “IN SITU-FORMING OF DENDRIMER HYDROGELS USING MICHAEL-ADDITION REACTION” (Virginia Commonwealth University, priority 2016, published 2017)
